Assay [1] has as its target T1, phosphorylated EGFR (pEGFR) (Homo sapiens, UniProt P00533).
T1 construct: performed to measure phosphorylated EGFR levels using A431 cells; endogenous in cells; host or cells: A431
The assay can be described thus: Detection of phosphorylated EGFR (pEGFR) in EGF-stimulated A431 cells (AlphaLISA). The class given is cell-based. The settings on record: A431 cells (10% FBS), 4 hours incubation, EGF 30 ng/mL for 10 minutes. The gist of the method:
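Cells in 10% FBS treated with compound 4 h at 37° C., then stimulated 10 min with 30 ng/mL EGF, lysed, and pEGFR measured by AlphaLISA. Inhibition normalized to DMSO and staurosporine controls; IC50 from four-parameter logistic fit.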
In general terms: In Alpha technology, singlet oxygen from a donor bead excites a nearby acceptor bead.

In assay [2] the target is Ba/F3 ERBB2 YVMA (Homo sapiens, UniProt P04626, DUP772-775, cells depend on it). The assay can be described thus: Cell viability assay (CellTiter Glo) in Ba/F3 cells engineered to express ERBB2 YVMA. The class given is cell-based, mouse. The settings on record: Ba/F3 cells expressing human ERBB2 YVMA mutant, 72 hours, % viability, read-out: Ba/F3 ERBB2 YVMA IC50. The gist of the method:
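IL-3-independent mouse Ba/F3 line stably transduced with human ERBB2 YVMA, seeded at 3000 cells/well, exposed to serially diluted compound (≤0.1% DMSO) for 72 h at 37° C. ATP read by CellTiter Glo luminescence, normalised to DMSO and media-only controls; sigmoidal nonlinear regression fit.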
(In general: In ATP-based viability assays light output follows the ATP content of the culture.)

Assay [3] addresses T2, phosphorylated ERBB2 (pERBB2) (Homo sapiens, UniProt P04626).
T2 construct: endogenous in cells; host or cells: BT-474
The assay is described as follows: Detection of phosphorylated ERBB2 (pERBB2) by ELISA in BT-474 cells. The class given is cell-based. The conditions noted are these: four hour incubation with compound. The gist of the method: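 BT-474 cells treated 4 h at 37 °C, 5% CO2 with four-fold dilutions (10 μM to 0.01 nM final). Lysates analysed by ELISA for pERBB2, TMB read at OD 450 nm. % relative activity normalised to no-cell (low) and 0.1% DMSO-treated (high) controls.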
On the technique in general: ELISA stands for enzyme-linked immunosorbent assay.

Our source for the IC50 and GI50 values is patent US20250136595A1, “ACYLATED HETEROCYCLIC QUINAZOLINE DERIVATIVES AS INHIBITORS OF ERBB2” (Enliven Inc., priority 2022, published 2025).

In general, IC50 refers to the concentration at which inhibition is half-maximal.

T2 sequence (P04626 23-1255): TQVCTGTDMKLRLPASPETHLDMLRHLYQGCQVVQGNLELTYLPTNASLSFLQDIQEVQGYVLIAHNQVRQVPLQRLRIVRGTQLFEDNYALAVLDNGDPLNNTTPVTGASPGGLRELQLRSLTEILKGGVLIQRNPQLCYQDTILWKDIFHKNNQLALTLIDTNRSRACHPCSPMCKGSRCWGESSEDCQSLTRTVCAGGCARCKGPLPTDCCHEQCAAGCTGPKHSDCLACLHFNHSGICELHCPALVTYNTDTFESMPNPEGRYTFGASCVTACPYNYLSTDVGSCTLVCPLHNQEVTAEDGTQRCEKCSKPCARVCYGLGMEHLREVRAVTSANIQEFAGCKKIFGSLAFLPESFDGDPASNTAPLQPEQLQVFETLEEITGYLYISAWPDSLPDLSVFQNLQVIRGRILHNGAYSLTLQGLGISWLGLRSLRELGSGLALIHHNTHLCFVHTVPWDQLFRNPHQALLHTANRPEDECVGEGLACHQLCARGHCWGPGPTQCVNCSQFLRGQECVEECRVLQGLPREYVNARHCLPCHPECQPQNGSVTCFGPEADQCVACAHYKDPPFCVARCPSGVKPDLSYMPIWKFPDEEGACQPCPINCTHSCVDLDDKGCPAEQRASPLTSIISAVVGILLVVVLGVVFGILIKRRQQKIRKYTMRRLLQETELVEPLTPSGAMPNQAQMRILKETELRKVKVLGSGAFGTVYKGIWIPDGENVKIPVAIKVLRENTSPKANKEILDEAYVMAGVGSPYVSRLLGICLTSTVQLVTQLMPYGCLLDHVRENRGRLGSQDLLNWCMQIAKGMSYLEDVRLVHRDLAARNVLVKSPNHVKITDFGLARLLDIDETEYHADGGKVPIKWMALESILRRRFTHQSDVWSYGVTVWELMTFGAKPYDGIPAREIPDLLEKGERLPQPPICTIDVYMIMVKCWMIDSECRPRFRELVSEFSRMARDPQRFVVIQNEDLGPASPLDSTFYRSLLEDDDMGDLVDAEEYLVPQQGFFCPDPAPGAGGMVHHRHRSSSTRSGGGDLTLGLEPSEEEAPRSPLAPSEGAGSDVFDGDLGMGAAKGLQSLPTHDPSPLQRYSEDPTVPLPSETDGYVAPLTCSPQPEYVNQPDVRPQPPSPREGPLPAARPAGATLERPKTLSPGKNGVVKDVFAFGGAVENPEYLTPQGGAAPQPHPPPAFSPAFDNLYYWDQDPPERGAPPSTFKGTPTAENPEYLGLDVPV
T1 sequence (P00533 25-1210): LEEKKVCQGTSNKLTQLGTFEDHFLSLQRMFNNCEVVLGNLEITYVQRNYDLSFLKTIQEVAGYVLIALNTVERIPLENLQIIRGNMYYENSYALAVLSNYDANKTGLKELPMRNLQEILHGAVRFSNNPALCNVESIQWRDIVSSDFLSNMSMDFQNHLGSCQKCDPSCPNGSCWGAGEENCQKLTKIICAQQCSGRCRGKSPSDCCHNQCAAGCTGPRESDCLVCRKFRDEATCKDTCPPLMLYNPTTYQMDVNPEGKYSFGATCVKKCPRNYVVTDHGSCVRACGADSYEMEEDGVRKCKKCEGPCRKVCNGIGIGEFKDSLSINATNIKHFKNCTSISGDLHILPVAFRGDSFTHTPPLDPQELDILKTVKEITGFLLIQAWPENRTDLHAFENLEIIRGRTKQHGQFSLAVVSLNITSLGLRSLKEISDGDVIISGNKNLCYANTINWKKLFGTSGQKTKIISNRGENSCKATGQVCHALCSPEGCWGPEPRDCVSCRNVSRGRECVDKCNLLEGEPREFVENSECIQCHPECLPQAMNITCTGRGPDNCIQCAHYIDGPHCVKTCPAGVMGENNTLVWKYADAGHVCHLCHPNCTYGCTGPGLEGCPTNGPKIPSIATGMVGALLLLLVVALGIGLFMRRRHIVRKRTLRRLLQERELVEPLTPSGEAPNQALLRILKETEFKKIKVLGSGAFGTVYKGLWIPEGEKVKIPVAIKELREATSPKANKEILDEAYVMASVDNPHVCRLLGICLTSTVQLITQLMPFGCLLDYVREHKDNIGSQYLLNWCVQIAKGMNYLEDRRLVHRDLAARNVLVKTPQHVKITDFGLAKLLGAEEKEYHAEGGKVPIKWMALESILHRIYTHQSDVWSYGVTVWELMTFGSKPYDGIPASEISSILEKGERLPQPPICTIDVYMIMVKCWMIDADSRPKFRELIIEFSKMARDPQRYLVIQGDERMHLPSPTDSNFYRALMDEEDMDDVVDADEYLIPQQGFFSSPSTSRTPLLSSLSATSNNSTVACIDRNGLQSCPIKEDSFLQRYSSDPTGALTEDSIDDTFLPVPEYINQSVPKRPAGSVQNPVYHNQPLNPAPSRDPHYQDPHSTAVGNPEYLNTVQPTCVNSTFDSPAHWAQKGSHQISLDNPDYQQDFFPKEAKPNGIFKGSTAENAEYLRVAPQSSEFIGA
Chain of Ba/F3 ERBB2 YVMA (P04626 with tags, fused parts or gaps DUP772-775): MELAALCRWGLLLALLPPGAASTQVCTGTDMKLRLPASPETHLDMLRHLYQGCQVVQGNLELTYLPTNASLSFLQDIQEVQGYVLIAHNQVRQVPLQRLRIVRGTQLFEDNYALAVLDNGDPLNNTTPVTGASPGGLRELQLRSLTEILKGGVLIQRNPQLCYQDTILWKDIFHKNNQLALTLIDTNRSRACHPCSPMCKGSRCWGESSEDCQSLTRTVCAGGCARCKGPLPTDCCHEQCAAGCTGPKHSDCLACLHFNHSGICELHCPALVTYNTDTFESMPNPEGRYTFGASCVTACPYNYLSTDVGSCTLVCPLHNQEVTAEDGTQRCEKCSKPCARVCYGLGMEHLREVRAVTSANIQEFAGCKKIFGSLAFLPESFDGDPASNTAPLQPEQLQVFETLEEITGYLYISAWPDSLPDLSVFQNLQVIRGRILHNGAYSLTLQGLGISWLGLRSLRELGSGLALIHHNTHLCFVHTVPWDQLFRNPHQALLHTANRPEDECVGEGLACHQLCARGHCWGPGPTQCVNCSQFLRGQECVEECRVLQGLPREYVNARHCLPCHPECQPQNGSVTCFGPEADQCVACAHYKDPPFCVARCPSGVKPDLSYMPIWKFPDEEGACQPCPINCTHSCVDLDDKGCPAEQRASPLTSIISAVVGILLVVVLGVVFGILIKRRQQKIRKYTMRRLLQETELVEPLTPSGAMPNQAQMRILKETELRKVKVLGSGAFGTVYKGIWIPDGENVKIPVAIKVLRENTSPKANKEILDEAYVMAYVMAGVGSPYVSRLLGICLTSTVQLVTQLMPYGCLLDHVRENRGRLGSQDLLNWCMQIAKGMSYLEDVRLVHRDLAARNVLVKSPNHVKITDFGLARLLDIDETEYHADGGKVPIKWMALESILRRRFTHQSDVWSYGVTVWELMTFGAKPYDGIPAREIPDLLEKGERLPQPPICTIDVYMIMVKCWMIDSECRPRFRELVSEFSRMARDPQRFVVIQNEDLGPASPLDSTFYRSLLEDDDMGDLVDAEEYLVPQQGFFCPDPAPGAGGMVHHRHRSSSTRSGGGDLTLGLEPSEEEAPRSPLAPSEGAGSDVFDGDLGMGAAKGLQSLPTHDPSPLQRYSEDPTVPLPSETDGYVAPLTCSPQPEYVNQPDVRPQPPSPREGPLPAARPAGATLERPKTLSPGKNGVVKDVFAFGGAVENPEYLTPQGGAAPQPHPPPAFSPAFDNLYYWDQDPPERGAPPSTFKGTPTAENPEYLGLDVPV

On to `C=CC(=O)N1CCC[C@H](Nc2ccc3ncnc(Nc4ccc(Oc5ccn6ncnc6c5)c(C)c4)c3n2)C1` [Compound 41, (S)-1-(3-((4-((4-([1,2,4]triazolo[1,5-a]pyridin-7-yloxy)-3-methylphenyl)amino)pyrido[3,2-d]pyrimidin-6-yl)amino)piperidin-1-yl)prop-2-en-1-one], for which the IC50 in assay [1] stood at 1590 nM; in assay [3], 18.1 nM. In addition, the GI50 in assay [2] amounted to 19.7 nM.

Turning to `C=CC(=O)N1CCC[C@@H](Nc2ccc3ncnc(Nc4ccc(Oc5ccn6ncnc6c5)c(C)c4)c3n2)C1` [Compound 42, 1-[(3R)-3-({4-[(3-methyl-4-{[1,2,4]triazolo[1,5-a]pyridin-7-yloxy}phenyl)amino]pyrido[3,2-d]pyrimidin-6-yl}amino)piperidin-1-yl]prop-2-en-1-one], the results for the IC50 in assay [1] and in assay [3] were > 10000 nM and 29.7 nM, respectively. For the same compound, the GI50 in assay [2] is 219 nM.

For `C=CC(=O)N1CC[C@H](Nc2ccc3ncnc(Nc4ccc(Oc5ccn6ncnc6c5)c(C)c4)c3n2)C1` [Compound 43, 1-[(3S)-3-({4-[(3-methyl-4-{[1,2,4]triazolo[1,5-a]pyridin-7-yloxy}phenyl)amino]pyrido[3,2-d]pyrimidin-6-yl}amino)pyrrolidin-1-yl]prop-2-en-1-one], the 50% inhibitory concentration (IC50) was found to be 61.2 nM in assay [1] and 5.11 nM in assay [3]. In addition, the GI50 in assay [2] was determined as 3.93 nM.

On to `C=CC(=O)N1CC[C@@H](Nc2ccc3ncnc(Nc4ccc(Oc5ccn6ncnc6c5)c(C)c4)c3n2)C1` [Compound 44, 1-[(3R)-3-({4-[(3-methyl-4-{[1,2,4]triazolo[1,5-a]pyridin-7-yloxy}phenyl)amino]pyrido[3,2-d]pyrimidin-6-yl}amino)pyrrolidin-1-yl]prop-2-en-1-one], for which the IC50 in assay [1] was determined as 268 nM; in assay [3], 6.33 nM. For the same compound, the GI50 in assay [2] is 2.58 nM.

Consider `C=CC(=O)N1CCN(c2ncc3ncnc(Nc4ccc(Oc5ccn6ncnc6c5)c(C)c4)c3n2)CC1` [Compound 45, 1-(4-{8-[(3-methyl-4-{[1,2,4]triazolo[1,5-a]pyridin-7-yloxy}phenyl)amino]pyrimido[5,4-d][1,3]diazin-2-yl}piperazin-1-yl)prop-2-en-1-one], for which the figures for the IC50 in assay [1] and in assay [3] were 667 nM and 9.23 nM, respectively. Moreover, the GI50 in assay [2] was 4.5 nM.

With `C=CC(=O)N1CCCC2(C1)CN(c1ccc3ncnc(Nc4ccc(Oc5ccn6ncnc6c5)c(C)c4)c3n1)C2` [Compound 46, 1-(2-{4-[(3-methyl-4-{[1,2,4]triazolo[1,5-a]pyridin-7-yloxy}phenyl)amino]pyrido[3,2-d]pyrimidin-6-yl}-2,6-diazaspiro[3.5]nonan-6-yl)prop-2-en-1-one], the values for the IC50 in assay [1] and in assay [3] were > 10000 nM and 45.3 nM, respectively. Further, the GI50 in assay [2] came to 24.6 nM.

Turning to `C=CC(=O)N1CCN(c2ccc3ncnc(Nc4ccc(Oc5ccc6c(c5)ncn6C)c(C)c4)c3n2)C[C@@H]1C` [Compound 47, 1-[(2S)-2-methyl-4-[4-({3-methyl-4-[(1-methyl-1,3-benzodiazol-5-yl)oxy]phenyl}amino)pyrido[3,2-d]pyrimidin-6-yl]piperazin-1-yl]prop-2-en-1-one], the IC50 turned out to be 2440 nM in assay [1] and 30 nM in assay [3]. In addition, the GI50 in assay [2] worked out at 14 nM.

Turning to `C=CC(=O)N1CCN(c2ccc3ncnc(Nc4ccc(Oc5ccc6c(c5)ncn6C)c(C)c4)c3n2)C[C@H]1C` [Compound 48, 1-[(2R)-2-methyl-4-[4-({3-methyl-4-[(1-methyl-1,3-benzodiazol-5-yl)oxy]phenyl}amino)pyrido[3,2-d]pyrimidin-6-yl]piperazin-1-yl]prop-2-en-1-one], the IC50 amounted to 1200 nM in assay [1] and 33.2 nM in assay [3]. The GI50 in assay [2] was 18.3 nM.

`C=CC(=O)N1CC[C@H](Oc2ccc3ncnc(Nc4ccc(Oc5ccc6c(c5)ncn6C)c(C)c4)c3n2)C1` [Compound 49, 1-[(3S)-3-{[4-({3-methyl-4-[(1-methyl-1,3-benzodiazol-5-yl)oxy]phenyl}amino)pyrido[3,2-d]pyrimidin-6-yl]oxy}pyrrolidin-1-yl]prop-2-en-1-one]: the IC50 is 346 nM in assay [1] and 56.9 nM in assay [3]. The GI50 in assay [2] is 15.7 nM.

`CC#CC(=O)N1CC[C@H](Oc2ccc3ncnc(Nc4ccc(Oc5ccc6c(c5)ncn6C)c(C)c4)c3n2)C1` [Compound 50, 1-[(3S)-3-{[4-({3-methyl-4-[(1-methyl-1,3-benzodiazol-5-yl)oxy]phenyl}amino)pyrido[3,2-d]pyrimidin-6-yl]oxy}pyrrolidin-1-yl]but-2-yn-1-one]: the IC50 in assay [1] is > 10000 nM; in assay [3], 480 nM. For the same compound, the GI50 in assay [2] is 52 nM.

Turning to `C=CC(=O)N1CCN(c2ccc3ncnc(Nc4ccc(Cc5ccn6ncnc6c5)c(C)c4)c3n2)C[C@H]1C` [Compound 51, 1-[(2R)-2-methyl-4-{4-[(3-methyl-4-{[1,2,4]triazolo[1,5-a]pyridin-7-ylmethyl}phenyl)amino]pyrido[3,2-d]pyrimidin-6-yl}piperazin-1-yl]prop-2-en-1-one], the values for the IC50 in assay [1] and in assay [3] were 1670 nM and 20.9 nM, respectively. Also, in assay [2], the GI50 turned out to be 5.71 nM.

Take `C=CC(=O)N1CCN(c2cc3c(Nc4ccc(Cc5ccn6ncnc6c5)c(C)c4)ncnc3cn2)C[C@H]1C` [Compound 52, (R)-1-(4-(4-((4-([1,2,4]triazolo[1,5-a]pyridin-7-ylmethyl)-3-methylphenyl)amino)pyrido[3,4-d]pyrimidin-6-yl)-2-methylpiperazin-1-yl)prop-2-en-1-one]: the IC50 in assay [1] is > 10000 nM; in assay [3], 50.6 nM. For the same compound, the GI50 in assay [2] worked out at 120 nM.

As for `C=CC(=O)N1CCN(c2ccc3ncnc(Nc4ccc(Cc5ccc6c(c5)ncn6C)c(C)c4)c3n2)C[C@H]1C` [Compound 53, 1-[(2R)-2-methyl-4-[4-({3-methyl-4-[(1-methyl-1,3-benzodiazol-5-yl)methyl]phenyl}amino)pyrido[3,2-d]pyrimidin-6-yl]piperazin-1-yl]prop-2-en-1-one], the IC50 in assay [1] came to 1460 nM; in assay [3], 35.4 nM. The GI50 in assay [2] stood at 14 nM.

For the compound `C=CC(=O)N1CCN(c2ccc3ncnc(Nc4ccc(Cc5ccc6c(c5)ncn6C)c(C)c4)c3c2)C[C@H]1C` [Compound 54, 1-[(2R)-2-methyl-4-[4-({3-methyl-4-[(1-methyl-1,3-benzodiazol-5-yl)methyl]phenyl}amino)quinazolin-6-yl]piperazin-1-yl]prop-2-en-1-one], the 50% inhibitory concentration (IC50) in assay [1] stood at 2420 nM; in assay [3], 21.9 nM. The GI50 in assay [2] came to 48.2 nM.

With `C=CC(=O)N1CCN(c2cc3c(Nc4ccc(Oc5ccn6ncnc6c5)c(C)c4)ncnc3cn2)C[C@H]1C` [Compound 55, 1-[(2R)-2-methyl-4-{4-[(3-methyl-4-{[1,2,4]triazolo[1,5-a]pyridin-7-yloxy}phenyl)amino]pyrido[3,4-d]pyrimidin-6-yl}piperazin-1-yl]prop-2-en-1-one], the concentration for half-maximal inhibition (IC50) in assay [1] was found to be 2580 nM; in assay [3] it was 12 nM. The GI50 in assay [2] was found to be 18.5 nM.

Regarding `C=CC(=O)N1CCN(c2ncc3ncnc(Nc4ccc(Oc5ccn6ncnc6c5)c(C)c4)c3n2)C[C@H]1C` [Compound 56, 1-[(2R)-2-methyl-4-{8-[(3-methyl-4-{[1,2,4]triazolo[1,5-a]pyridin-7-yloxy}phenyl)amino]pyrimido[5,4-d][1,3]diazin-2-yl}piperazin-1-yl]prop-2-en-1-one], the IC50 in assay [1] was found to be 1050 nM; in assay [3], 14.8 nM. Besides, the GI50 in assay [2] amounted to 7.86 nM.

Regarding `C=CC(=O)N1CCN(c2ncc3ncnc(Nc4ccc(Oc5ccc6c(c5)ncn6C)c(C)c4)c3n2)C[C@H]1C` [Compound 57, (R)-1-(2-methyl-4-(8-((3-methyl-4-((1-methyl-1H-benzo[d]imidazol-5-yl)oxy)phenyl)amino)pyrimido[5,4-d]pyrimidin-2-yl)piperazin-1-yl)prop-2-en-1-one], the IC50 in assay [1] is 2880 nM; in assay [3], 25.8 nM. In assay [2], the GI50 worked out at 21 nM.

Turning to `C=CC(=O)N1CCN(c2ccc3ncnc(Nc4ccc(Oc5ccc6c(c5)ncn6C)c(C)c4)c3c2)C[C@H]1C` [Compound 58, 1-[(2R)-2-methyl-4-[4-({3-methyl-4-[(1-methyl-1,3-benzodiazol-5-yl)oxy]phenyl}amino)quinazolin-6-yl]piperazin-1-yl]prop-2-en-1-one], the figures for the IC50 in assay [1] and in assay [3] were 2460 nM and 31.4 nM, respectively. Moreover, the GI50 in assay [2] is 24.1 nM.

For `C=CC(=O)N1CCN(c2cc3c(Nc4ccc(Oc5ccc6c(c5)ncn6C)c(C)c4)ncnc3cn2)C[C@H]1C` [Compound 59, 1-[(2R)-2-methyl-4-[4-({3-methyl-4-[(1-methyl-1,3-benzodiazol-5-yl)oxy]phenyl}amino)pyrido[3,4-d]pyrimidin-6-yl]piperazin-1-yl]prop-2-en-1-one], the IC50 was 3800 nM in assay [1] and 20.1 nM in assay [3]. Besides, the GI50 in assay [2] stood at 27.4 nM.

On to `C=CC(=O)N1[C@H](C)CN(c2ccc3ncnc(Nc4ccc(Oc5ccn6ncnc6c5)c(C)c4)c3n2)C[C@@H]1C` [Compound 60, 1-(cis-4-(4-((4-([1,2,4]triazolo[1,5-a]pyridin-7-yloxy)-3-methylphenyl)amino)pyrido[3,2-d]pyrimidin-6-yl)-2,6-dimethylpiperazin-1-yl)prop-2-en-1-one], for which the IC50 was 3780 nM in assay [1] and 23.7 nM in assay [3]. Besides, in assay [2], the GI50 came out at 14.3 nM.
